From US20200055839A1 (priority 2017, published 2020)

Tested on: NL-RLuc virus
Assay: Inhibition of HIV replication (NL-RLuc virus, luciferase readout in MT-2 cells)
Assay type: cell-based
Settings: MT-2 cells infected with NL-RLuc virus, 5 days of incubation, 10% FBS, at least 2 experiments
In short: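 EC50 derived via median effect equation from at least 2 experiments, using luciferase expression as virus-growth readout. Replication-competent NL-RLuc reporter virus (nef partly replaced by Renilla luciferase) infected MT-2 cells with serial compound dilutions; 5-day incubation in RPMI 1640 plus 10% FBS.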

[1] = Human immunodeficiency virus 1, MT2, 120 h

Cc1ncc(-c2cnc(OCCc3ccccc3Cl)c(F)c2)c(N2CCC(C)(C)CC2)c1[C@H](OC(C)(C)C)C(=O)O [Example 238, (S)-2-(tert-Butoxy)-2-(6′-(2-chlorophenethoxy)-4-(4,4-dimethylpiperidin-1-yl)-5′-fluoro-6-methyl-[3, 3′-bipyridin]-5-yl)acetic acid]
EC50 [1]: 2 nM

COc1c(F)cc(-c2c(CN3CCC4(CCC4)CC3)nc(Cl)c([C@H](OC(C)(C)C)C(=O)O)c2N2CCC(C)(C)CC2)cc1F [Example 204]
EC50 [1]: 1 nM

Cc1ncc(-c2cnc(OCC(C)C)c(Cl)c2)c(N2CCC(C)(C)CC2)c1[C@H](OC(C)(C)C)C(=O)O [Example 417, (S)-2-(tert-Butoxy)-2-(5′-chloro-4-(4,4-dimethylpiperidin-1-yl)-6′-isobutoxy-6-methyl-[3,3′-bipyridin]-5-yl)acetic acid]
EC50 [1]: 12 nM

Cc1ncc(-c2ccc(NCC(C)C)nc2)c(N2CCC(C)(C)CC2)c1[C@H](OC(C)(C)C)C(=O)O [Example 436, (S)-2-tert-Butoxy-2-(4-(4,4-dimethylpiperidin-1-yl)-6′-(isobutylamino)-6-methyl-3, 3′-bipyridin-5-yl)acetic acid]
EC50 [1]: 7 nM

Cc1cccc(Cl)c1C(C)Oc1ccc(-c2cnc(C)c([C@H](OC(C)(C)C)C(=O)O)c2N2CCC(C)(C)CC2)cn1 (stereo partly drawn) [Example 424, (2S)-2-(tert-Butoxy)-2-(6′-(1-(2-chloro-6-methylphenyl)ethoxy)-4-(4,4-dimethylpiperidin-1-yl)-6-methyl-[3, 3′-bipyridin]-5-yl)acetic acid]
EC50 [1]: 16 nM

Cc1nc(N(C)CCCN(C)C)c(-c2ccc(OCCc3ccc(F)cc3)cc2)c(N2CCC(C)(C)CC2)c1[C@H](OC(C)(C)C)C(=O)O [Example 98, (S)-2-(tert-Butoxy)-2-(6-((3-(dimethylamino)propyl)(methyl)amino)-4-(4,4-dimethylpiperidin-1-yl)-5-(4-(4-fluorophenethoxy)phenyl)-2-methylpyridin-3-yl)acetic acid]
EC50 [1]: 2 nM

Cc1nc(CN2CCC3(CCC3)CC2)c(-c2ccc(F)cc2)c(N2CCC(C)(C)CC2)c1[C@H](OC(C)(C)C)C(=O)O [Example 191, (2S)-2-[6-({7-Azaspiro[3.5]nonan-7-yl}methyl)-4-(4,4-dimethylpiperidin-1-yl)-5-(4-fluorophenyl)-2-methylpyridin-3-yl]-2-(tert-butoxy)acetic acid]
EC50 [1]: 2 nM

CCCCOc1ccc(-c2cnc(C)c([C@H](OC(C)(C)C)C(=O)O)c2N2CCC(C)(C)CC2)cn1 [Example 426, (S)-2-tert-Butoxy-2-(6′-butoxy-4-(4,4-dimethylpiperidin-1-yl)-6-methyl-3, 3′-bipyridin-5-yl)acetic acid]
EC50 [1]: 0.3 nM

Cc1cc(-c2c(N)nc(C)c([C@H](OC(C)(C)C)C(=O)O)c2N2CCC(C)(C)CC2)cc(C)c1OCCc1ccc(F)cc1 [Example 61, (S)-2-(6-Amino-4-(4,4-dimethylpiperidin-1-yl)-5-(4-(4-fluorophenethoxy)-3,5-dimethylphenyl)-2-methylpyridin-3-yl)-2-(tert-butoxy)acetic acid]
EC50 [1]: 11 nM

Cc1ncc(-c2cnc(OCC(C)C)c(F)c2)c(N2CCC(C)(C)CC2)c1[C@H](OC(C)(C)C)C(=O)O [Example 381, (2S)-2-(tert-butoxy)-2-[4-(4,4-dimethylpiperidin-1-yl)-5′-fluoro-6-methyl-6′-(2-methylpropoxy)-[3,3′-bipyridine]-5-yl]acetic acid]
EC50 [1]: 3 nM

Cc1ncc(-c2cnc(NCCc3ccc(F)cc3)c(F)c2)c(N2CCC(C)(C)CC2)c1[C@H](OC(C)(C)C)C(=O)O [Example 416, (S)-2-(tert-Butoxy)-2-(4-(4,4-dimethylpiperidin-1-yl)-5′-fluoro-6′-((4-fluorophenethyl)amino)-6-methyl-[3, 3′-bipyridin]-5-yl)acetic acid]
EC50: 0.6 nM

Cc1ncc(-c2cnc(NCC(C)C)c(F)c2)c(N2CCC(C)(C)CC2)c1[C@H](OC(C)(C)C)C(=O)O [Example 415, (S)-2-(tert-Butoxy)-2-(4-(4,4-dimethylpiperidin-1-yl)-5′-fluoro-6′-(isobutylamino)-6-methyl-[3, 3′-bipyridin]-5-yl)acetic acid]
EC50 [1]: 2 nM

Cc1nc(-c2ccnn2C)c(-c2ccc(OCCc3ccc(F)cc3)cc2)c(N2CCC(C)(C)CC2)c1[C@H](OC(C)(C)C)C(=O)O [Example 50, (S)-2-(tert-Butoxy)-2-(4-(4,4-dimethylpiperidin-1-yl)-5-(4-(4-fluorophenethoxy)phenyl)-2-methyl-6-(1-methyl-1H-pyrazol-5-yl)pyridin-3-yl)acetic acid]
EC50 [1]: 2 nM

CCOc1ccc(-c2cnc(C)c([C@H](OC(C)(C)C)C(=O)O)c2N2CCC(C)(C)CC2)c(F)c1F [Example 175, (2S)-2-(tert-Butoxy)-2-[4-(4,4-dimethylpiperidin-1-yl)-5-(4-ethoxy-2,3-difluorophenyl)-2-methylpyridin-3-yl]acetic acid]
EC50 [1]: 6 nM

Cc1nc(Nc2ncccn2)c(-c2ccc(OCCc3ccc(F)cc3)c(F)c2)c(N2CCC(C)(C)CC2)c1[C@H](OC(C)(C)C)C(=O)O [Example 69, (S)-2-(tert-Butoxy)-2-(4-(4,4-dimethylpiperidin-1-yl)-5-(3-fluoro-4-(4-fluorophenethoxy)phenyl)-2-methyl-6-(pyrimidin-2-ylamino)pyridin-3-yl)acetic acid]
EC50: 3 nM

Cc1ncc(-c2ccc(OCCc3ccc(F)cc3)cc2F)c(N2CCC(C)(C)CC2)c1[C@H](OC(C)(C)C)C(=O)O [Example 123, (S)-2-(tert-Butoxy)-2-(4-(4,4-dimethylpiperidin-1-yl)-5-(2-fluoro-4-(4-fluorophenethoxy)phenyl)-2-methylpyridin-3-yl)acetic acid]
EC50 [1]: 2 nM

Cc1ncc(-c2cnc(OCCc3ccccc3F)c(F)c2)c(N2CCC(C)(C)CC2)c1[C@H](OC(C)(C)C)C(=O)O [Example 120, (S)-2-(tert-Butoxy)-2-(4-(4,4-dimethylpiperidin-1-yl)-5′-fluoro-6′-(2-fluorophenethoxy)-6-methyl-[3, 3′-bipyridin]-5-yl)acetic acid]
EC50 [1]: 2 nM

Cc1ncc(-c2ncc(OCCc3ccc(F)cc3)cn2)c(N2CCC(C)(C)CC2)c1[C@H](OC(C)(C)C)C(=O)O [Example 14, (S)-2-(tert-Butoxy)-2-(4-(4,4-dimethylpiperidin-1-yl)-5-(5-(4-fluorophenethoxy)pyrimidin-2-yl)-2-methylpyridin-3-yl)acetic acid]
EC50 [1]: 2 nM

Cc1cc(F)ccc1CCOc1ncc(-c2cnc(C)c([C@H](OC(C)(C)C)C(=O)O)c2N2CCC(C)(C)CC2)cc1F [Example 398, (2S)-2-(tert-butoxy)-2-[4-(4,4-dimethylpiperidin-1-yl)-5′-fluoro-6′-[2-(4-fluoro-2-methylphenyl)ethoxy]-6-methyl-[3,3′-bipyridine]-5-yl]acetic acid]
EC50 [1]: 2 nM

Cc1ncc(-c2ccc(O[C@H](C)C(C)C)cc2)c(N2CCC(C)(C)CC2)c1[C@H](OC(C)(C)C)C(=O)O [Example 362, (2S)-2-(tert-butoxy)-2-[4-(4,4-dimethylpiperidin-1-yl)-2-methyl-5-(4-{[(2R)-3-methylbutan-2-yl]oxy}phenyl)pyridin-3-yl]acetic acid]
EC50 [1]: 8 nM

CC1(C)CCN(c2c(-c3ccc(OCCc4ccc(F)cc4)cc3)cnc(N3CCCC3)c2[C@H](OC(C)(C)C)C(=O)O)CC1 [Example 202, (S)-2-(tert-Butoxy)-2-(4-(4,4-dimethylpiperidin-1-yl)-5-(4-(4-fluorophenethoxy)phenyl)-2-(pyrrolidin-1-yl)pyridin-3-yl)acetic acid]
EC50 [1]: 75 nM

Cc1nc(C(C)O)c(-c2ccc(OCCc3ccc(F)cc3)c(F)c2)c(N2CCC(C)(C)CC2)c1[C@H](OC(C)(C)C)C(=O)O (single isomer, unassigned) [Example 237]
EC50: 3 nM
